Tests used:
[1] = test system: Triticum aestivum cv. Hereward detached leaf segments; assay: Senescence bioassay on detached wheat leaf segments (chlorophyll retention); type: in vivo; settings: 96 h incubation in the dark at 25° C.; tested 10^−8 M to 10^−4 M
Experimental: Seeds of winter wheat, Triticum aestivum cv. Hereward, were washed under running water for 24 hours and then sown on vermiculite soaked with Knop's solution. They were placed in the growth chamber at 25° C. with a 16/8 h light period at 50 μmol·m^−2·s^−1. After 7 days, the first leaf was fully developed and the second leaf had started to grow. A tip section of the first leaf, approximately 35 mm long, was removed from 5 seedlings and trimmed slightly to a combined weight of 100 mg. The basal ends of the five leaf tips were placed in the wells of a microtiter polystyrene plate containing 150 μL of the tested derivative solution each. The entire plate was inserted into a plastic box lined with paper tissues soaked in distilled water to prevent leaf sections from drying out. After 96 h incubation in the dark at 25° C., the leaves were removed and chlorophyll extracted by heating at 80° C. for 10 min in 5 mL of 80% ethanol (v/v). The sample volume was then restored to 5 mL by the addition of 80% ethanol (v/v). The absorbance of the extract was recorded at 665 nm. In addition, chlorophyll extracts from fresh leaves and leaf tips incubated in deionised water were measured. The results are means of five replicates and the entire test was repeated twice. […] The compounds to be tested were dissolved in dimethylsulfoxide (DMSO) and the solution brought up to 10^−3M with distilled water. […] The activity obtained for 10^−4 M of BAP was postulated as 100%.

[2] = test system: Arabidopsis wild-type plants (Col-0) detached leaves, gene transcription; assay: Differential gene expression study (RNA sequencing) in detached senescent leaves; type: in vivo; settings: 10 μM
Experimental: For isolation of total RNA, Arabidopsis wild-type plants (Col-0) were used, which were either treated with 3MeOBAPA or left untreated. Wild-type plants were grown in soil for 30 days, and then leaves of similar size and chlorophyll content were cut and immediately used for the treatment. At least 20 detached leaves were submerged in 1×MS medium supplemented with 10 μM 3MeOBAPA. Control samples were mock treated with DMSO only. After incubation for 6 h or 48 h in the dark, detached leaves were frozen in liquid nitrogen and used for RNA isolation; 150 mg of liquid nitrogen-ground material was used per isolation. cDNA sequencing libraries were prepared with the Illumina TruSeq Stranded mRNA LT Sample Prep Kit (Illumina, San Diego, Calif.) according to standard Illumina's protocols and sequenced on HiSeq 2500 apparatus (50 bp single-end reads).
To gain insight into the molecular mechanism of 3MeOBAPA action in Arabidopsis we decided to analyze the gene expression patterns via comparison of mock (DMSO)-treated plants with those obtained after i) short time treatment with 3MeOBAPA (6 h) and ii) long time treatment (48 h). This comparison leads to identification of group of genes with similar kinetic of expression and helps to understand possible mechanism of regulation. For data analysis, we performed ab initio method where sequencing reads were mapped to the reference genome.

Vaccinia virus = settings: Masakatsu et al. 1977, cited from earlier work
Herpes simplex virus = settings: Masakatsu et al. 1977; cited from earlier work
[3] = test system: Dais cotinifolia shoot-tip explants; assay: Shoot multiplication and shoot-tip necrosis in shoot cultures of Dais cotinifolia; type: in vivo; settings: after 8 weeks of culture
Experimental: Explants were washed thoroughly with 0.1% (v/v) of Tween® 20 for 2 min, and decontaminated with 70% ethanol for 15 sec followed by 0.2% aqueous HgCl2 for 10 min. The explants were rinsed five times with sterile distilled water. […] Each value was presented as the mean±standard error, with three replicates; each replicate consisting of 15 explants per treatment.

[4] = test system: Amelanchier alnifolia nodal explants; assay: Micropropagation growth response with BAP, Amelanchier alnifolia; settings: after 35 days in vitro, N = 9
[5] = test system: Gymnosporia buxifolia shoot-tip explants; assay: Shoot-tip necrosis in in vitro cultures of Gymnosporia buxifolia; settings: after 4 weeks of culture
[6] = test system: Harpagophytum procumbens nodal explants; assay: Micropropagation growth response with BAP, Harpagophytum procumbens; settings: after 35 days in vitro, N = 12

## COc1cccc(CNc2ncnc3c2ncn3[C@@H]2O[C@H](CO)[C@@H](O)[C@@H]2O)c1 [6-(3-methoxybenzylamino)-9-β-D-arabinofuranosylpurine]
[1]
  maximum effective concentration: 10^−4 mol · l^−1
[2]; 6 h
  logFC AT1G10585 Basic helix-loop-helix (bHLH) DNA-binding superfamily protein: 0.38
  logFC AT1G15540 2-oxoglutarate and Fe(II)-dependent oxygenase superfamily protein: 0.57
  logFC AT1G19670 Chlorophyllase-1 (CLH1): 0.63
  logFC AT1G59860 17.6 kDa class I heat shock protein 1 (HSP17.6A): 0.48
  logFC AT1G76640 Calcium-binding EF-hand family protein (CML39): 0.78
  logFC AT2G02010 Glutamate decarboxylase 4 (GAD4): 0.55
  logFC AT2G18150 Peroxidase 15 (PER15): 0.68
  logFC AT2G21900 WRKY transcription factor 59 (WRKY59): 0.54
  logFC AT2G26695 Ran BP2/NZF zinc finger-like superfamily protein: 0.50
  logFC AT2G28210 Alpha carbonic anhydrase 2 (ATACA2): 0.85
  logFC AT2G37430 Zinc finger protein ZAT11: 0.42
  logFC AT2G39030 L-ornithine N5-acetyltransferase (NATA1): 0.56
  logFC AT2G47040 Pectin methylesterase Vanguard1 (VGD1): 2.80
  logFC AT3G05610 Pectinesterase/pectinesterase inhibitor 21 (PME21): 1.80
  logFC AT3G09340 Transmembrane amino acid transporter family protein: 0.55
  logFC AT3G11340 UDP-Glycosyltransferase superfamily protein: 0.51
  logFC AT3G13400 SKU5 similar 13 (SKS13): 0.82
  logFC AT3G28153 Transposable element gene: 0.92
  logFC AT3G28155 ARM repeat superfamily protein: 0.59
  logFC AT3G44830 Putative phospholipid:diacylglycerol acyltransferase 2 (PDAT2): 0.38
  logFC AT4G01390 TRAF-like family protein: 0.79
  logFC AT4G21830 Peptide methionine sulfoxide reductase B7 (MSRB7): 0.55
  logFC AT4G22030 F-box domain, cyclin-like, F-box domain, Skp2-like protein: 0.41
  logFC AT4G22620 SAUR-like auxin-responsive family protein: 0.46
  logFC AT4G24350 Phosphorylase superfamily protein: 0.64
  logFC AT4G26010 Peroxidase 44 (PER44): 0.53
  logFC AT4G31950 Cytochrome P450 82C3 (CYP82C3): 0.37
  logFC AT4G37780 Myb domain protein 87 (MYB87): 0.41
  logFC AT4G39320 Microtubule-associated protein-related: 0.45
  logFC AT5G03610 GDSL esterase/lipase: 0.42
  logFC AT5G52670 Copper transport family protein: 0.57
  logFC AT5G62720 Integral membrane HPP family protein: 0.44
  logFC AT5G63270 RPM1-interacting protein 4 (RIN4) family protein: 0.56
[2]; 48 h
  logFC AT2G26695 Ran BP2/NZF zinc finger-like superfamily protein: 5.90
  logFC AT3G11340 UDP-Glycosyltransferase superfamily protein: 6.60
  logFC AT3G28153 Transposable element gene: 5.70
[2]; long time treatment (48 h) vs mock (DMSO)
  number of downregulated genes (P≤0.05): 7 095 genes

## Cc1ccccc1CNc1ncnc2c1ncn2[C@@H]1O[C@H](CO)[C@@H](O)[C@@H]1O [2-methylbenzyl]
Vaccinia virus
  activity in killing Vaccinia virus: No effect
Herpes simplex virus
  activity in killing Herpes simplex virus: No effect

## Cc1ccc(C)c(CNc2ncnc3c2ncn3C2OC(CO)C(O)C2O)c1 (centres unmarked) [2,5-dimethylbenzyl]
Vaccinia virus
  activity against Vaccinia virus, strain IHD: low activity

## OC[C@H]1O[C@@H](n2cnc3c(NCc4ccccc4)ncnc32)[C@@H](O)[C@@H]1O [6-benzylamino-9-β-D-arabinofuranosylpurine]
Vaccinia virus
  activity in killing Vaccinia virus: No effect
Herpes simplex virus
  activity in killing Herpes simplex virus: No effect

## Cc1cccc(C)c1CNc1ncnc2c1ncn2[C@@H]1O[C@H](CO)[C@@H](O)[C@@H]1O [2,6-dimethylbenzyl]
Vaccinia virus
  activity in killing Vaccinia virus: No effect
Herpes simplex virus
  activity in killing Herpes simplex virus: No effect

## Cc1cccc(CNc2ncnc3c2ncn3[C@@H]2O[C@H](CO)[C@@H](O)[C@@H]2O)c1 [Example 3CH3BAPA, 6-(3-methylbenzylamino)-9-β-D-arabinofuranosylpurine]
[3]; 5 μM in MS medium
  Morphogenesis in vitro: Green shoots
  STN [%] (shoot-tip necrosis): 52.2 ± 0.89b %
  Shoot length [cm]: 1.42 ± 0.21bc cm
  Shoots [explant^−1] […]: 1.0 ± 0.00c explant^−1
[3]; 10 μM in MS medium
  Morphogenesis in vitro: Green shoots
  STN [%] (shoot-tip necrosis): 50.0 ± 0.75bc %
  Shoot length [cm]: 1.86 ± 0.14ab cm
  Shoots [explant^−1] […]: 1.0 ± 0.00c explant^−1
[3]; 20 μM in MS medium
  Morphogenesis in vitro: Pale green shoots
  STN [%] (shoot-tip necrosis): 45.5 ± 0.95d %
  Shoot length [cm]: 1.94 ± 0.09ab cm
  Shoots [explant^−1] […]: 1.8 ± 0.48bc explant^−1
[3]; 30 μM in MS medium
  Morphogenesis in vitro: Pale green shoots
  STN [%] (shoot-tip necrosis): 31.3 ± 1.12ef %
  Shoot length [cm]: 2.26 ± 0.22a cm
  Shoots [explant^−1] […]: 2.2 ± 0.32b explant^−1
Vaccinia virus
  activity in killing Vaccinia virus: No effect
Herpes simplex virus
  activity in killing Herpes simplex virus: No effect
[4]; 5 μM compound with 10 μM BAP
  Fresh weight (g) mean SE: 0.249 ± 0.0594 g
  Shoot length (mm) mean SE: 14.11 ± 1.670 mm
  Shoot no. mean SE: 7.6 ± 2.10
[4]; 10 μM compound with 10 μM BAP
  Fresh weight (g) mean SE: 0.349 ± 0.1025 g
  Shoot length (mm) mean SE: 18.89 ± 2.288 mm
  Shoot no. mean SE: 10.6 ± 2.75
[4]; 20 μM compound with 10 μM BAP
  Fresh weight (g) mean SE: 0.563 ± 0.0729 g
  Shoot length (mm) mean SE: 16.22 ± 1.730 mm
  Shoot no. mean SE: 13.7 ± 2.06
[4]; 30 μM compound with 10 μM BAP
  Fresh weight (g) mean SE: 0.335 ± 0.0877 g
  Shoot length (mm) mean SE: 18.33 ± 3.122 mm
  Shoot no. mean SE: 11.6 ± 2.99
[5]; 5 μM in MS medium
  STN [%] (shoot-tip necrosis): 53.3 ± 0.24d %
  Shoot length [cm]: 1.36 ± 0.27bc cm
  Shoots [explant^−1] […]: 1.0 ± 0.0a explant^−1
[5]; 10 μM in MS medium
  STN [%] (shoot-tip necrosis): 40.0 ± 0.20fg %
  Shoot length [cm]: 1.82 ± 0.17b cm
  Shoots [explant^−1] […]: 1.0 ± 0.0a explant^−1
[5]; 20 μM in MS medium
  STN [%] (shoot-tip necrosis): 22.6 ± 0.28hi %
  Shoot length [cm]: 3.30 ± 0.14a cm
  Shoots [explant^−1] […]: 1.0 ± 0.0a explant^−1
[5]; 30 μM in MS medium
  STN [%] (shoot-tip necrosis): 13.3 ± 0.24j %
  Shoot length [cm]: 3.00 ± 0.11a cm
  Shoots [explant^−1] […]: 1.0 ± 0.0a explant^−1
[6]; 5 μM compound with 10 μM BAP
  Fresh weight (g) mean SE: 0.8607 ± 0.1884 g
  Shoot length (mm) mean SE: 28.6 ± 4.397 mm
  Shoot no. mean SE: 2.8 ± 0.573
[6]; 10 μM compound with 10 μM BAP
  Fresh weight (g) mean SE: 1.0523 ± 0.2439 g
  Shoot length (mm) mean SE: 45.8 ± 7.094 mm
  Shoot no. mean SE: 2.6 ± 0.340
[6]; 20 μM compound with 10 μM BAP
  Fresh weight (g) mean SE: 0.8456 ± 0.1339 g
  Shoot length (mm) mean SE: 27 ± 3.531 mm
  Shoot no. mean SE: 2.3 ± 0.423
[6]; 30 μM compound with 10 μM BAP
  Fresh weight (g) mean SE: 1.1419 ± 0.213 g
  Shoot length (mm) mean SE: 40.6 ± 4.831 mm
  Shoot no. mean SE: 3.8 ± 0.593

## Cc1ccc(CNc2ncnc3c2ncn3[C@@H]2O[C@H](CO)[C@@H](O)[C@@H]2O)cc1C [3,4-dimethylbenzyl]
Vaccinia virus
  activity in killing Vaccinia virus: No effect
Herpes simplex virus
  activity in killing Herpes simplex virus: No effect

## Cc1ccc(CNc2ncnc3c2ncn3C2OC(CO)C(O)C2O)c(C)c1 (centres unmarked) [2,4-dimethylbenzyl]
Vaccinia virus
  activity against Vaccinia virus, strain IHD: low activity

## Cc1cccc(CNc2ncnc3c2ncn3C2OC(CO)C(O)C2O)c1C (centres unmarked) [2,3-dimethylbenzyl]
Vaccinia virus
  activity in killing Vaccinia virus: No effect
Herpes simplex virus
  activity in killing Herpes simplex virus: No effect

Reference: US10550144B2, “6-aryl-9-glycosylpurines and use thereof” (UNIVERZITA PALACKEHO V OLOMOUCI, priority 2014, dated 2020)
